The values that follow come from paper PMC10685318, “Trans-cyclosulfamidate mannose-configured cyclitol allows isoform-dependent inhibition of GH47 α-D-mannosidases through a bump–hole strategy” (Chemical Science, 2023).

What is called IC50 is the midpoint of a concentration-inhibition curve. A lower IC50 goes with higher potency.

Where only a bound is given, the exact number is not on record here.

For this experiment, the target named is T1, MAN2A1 (Homo sapiens, UniProt Q16706).
T1 construct: expressed in transfected cells
T1 sequence (Q16706 1-1144): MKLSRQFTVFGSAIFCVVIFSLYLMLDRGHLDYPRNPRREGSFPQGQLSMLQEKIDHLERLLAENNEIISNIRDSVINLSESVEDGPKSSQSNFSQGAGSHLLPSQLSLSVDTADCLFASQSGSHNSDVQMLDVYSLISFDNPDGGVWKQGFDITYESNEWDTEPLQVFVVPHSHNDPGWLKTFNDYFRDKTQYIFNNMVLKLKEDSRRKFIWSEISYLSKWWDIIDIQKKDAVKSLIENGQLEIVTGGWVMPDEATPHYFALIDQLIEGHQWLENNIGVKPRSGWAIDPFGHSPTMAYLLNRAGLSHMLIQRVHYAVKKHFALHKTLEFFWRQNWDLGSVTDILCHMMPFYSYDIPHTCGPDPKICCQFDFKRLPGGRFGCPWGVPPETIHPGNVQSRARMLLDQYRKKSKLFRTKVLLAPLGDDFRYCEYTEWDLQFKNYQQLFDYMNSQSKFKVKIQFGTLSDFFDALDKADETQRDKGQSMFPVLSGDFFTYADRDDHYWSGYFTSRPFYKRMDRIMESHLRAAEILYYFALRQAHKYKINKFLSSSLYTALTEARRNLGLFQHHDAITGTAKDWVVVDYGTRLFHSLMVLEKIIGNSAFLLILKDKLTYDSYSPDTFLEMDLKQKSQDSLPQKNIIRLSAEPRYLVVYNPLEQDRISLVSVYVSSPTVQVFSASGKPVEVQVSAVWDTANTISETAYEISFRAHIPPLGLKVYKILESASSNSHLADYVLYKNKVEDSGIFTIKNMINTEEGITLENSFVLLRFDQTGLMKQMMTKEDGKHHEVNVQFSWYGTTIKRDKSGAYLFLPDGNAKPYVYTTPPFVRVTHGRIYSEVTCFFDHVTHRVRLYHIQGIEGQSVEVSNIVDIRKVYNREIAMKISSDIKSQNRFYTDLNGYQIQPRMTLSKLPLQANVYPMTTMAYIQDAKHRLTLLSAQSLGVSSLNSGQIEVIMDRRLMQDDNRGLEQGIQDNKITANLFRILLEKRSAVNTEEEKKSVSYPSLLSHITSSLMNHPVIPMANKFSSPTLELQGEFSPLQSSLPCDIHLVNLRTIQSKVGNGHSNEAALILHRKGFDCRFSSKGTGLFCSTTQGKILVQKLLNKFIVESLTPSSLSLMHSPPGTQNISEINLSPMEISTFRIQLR
Nature of the experiment: 4-MU-α-man activity assay in overexpressed cell lysates. The class given is biochemical. The source says:
Finally, selectivity versus a panel of related exo-mannosidases was investigated. We first tested inhibition against all five human GH38 retaining α-mannosidases in overexpressed cell lysates using 4-methylumbelliferyl-α-mannoside (4-MU-α-man): Golgi mannosidase II and IIx (MAN2A1 and MAN2A2), cytosolic MAN2C1 and lysosomal MAN2B1 and MAN2B2. This α-mannosidase family follows a different conformational itinerary than GH47: ^0S2 → B2,5 → ^1S5.[35] […] Of note, the presence of cobalt has been associated with conformational changes in the active site of some GH38 α-mannosidases, which might affect the binding interaction with inhibitors.[36] Nevertheless, additional research is required to explore which specific metal ion is present in the MAN2C1 active site in its in vivo state.
Trans-Cyclosulfamidate Cyclitols Males et al.
2.3 GH38 α-mannosidases and GH2 β-mannosidase inhibition studies
All chemicals were of analytical grade and purchased from Sigma-Aldrich unless stated otherwise.
Optimal stability of cell homogenates and enzyme working stocks was ensured by preparation and temporary storage on ice. Cell homogenates were prepared and used on the same day. Protein concentrations were quantified using the Pierce BCA Protein Assay Kit (ThermoFisher). Protein samples were measured in clear flat-bottom polystyrene 96 well microplates (Greiner Bio-One) using a EMax Plus Microplate Reader (Molecular Devices). Activity measurements of human GH38 α-mannosidases and bacterial β-mannosidase BtMan2A were performed in black flat-bottom polystyrene 96 wells microplates (Greiner Bio-One) and total fluorescence was measured using a Perkin Elmer LS-55 fluorescence spectrometer at wavelengths λex = 366 and λem = 445 nm, with the signal optimized for medium gain readings. The fluorescence values of each enzyme sample were corrected for the background signal of a blank sample containing no enzyme. In the case of IC50 determinations, values were normalized against a control sample containing enzyme without added inhibitor. For a single experiment, three separate curves were fitted from a technical triplicate by setting the inhibitor concentration in µM against the normalized response using GraphPad Prism 8.4.2 software. The Prism functions ‘[inhibitor] versus normalized response’ and ‘[inhibitor] versus normalized response -- variable slope’ were compared for each curve using the Akaike’s Information Criterion method to select the preferred model. Reported IC50 values are mean ± standard deviation from a biological […]
General cell culture protocol
HEK293T cells were grown to confluency at 37 °C under a 5% CO2 atmosphere in Dulbecco’s Modified Eagle’s Medium (DMEM) with a high glucose concentration (Capricorn Scientific, DMEM-HPXA) that was supplemented with 10% fetal calf serum, 0.1% (w/v) penicillin/streptomycin and 1% (v/v) Glutamax. Cells were passaged twice a week to new round polystyrene (PS) tissue culture dishes (Sarstedt) by detachment off the former culture plates by careful pipetting. To prepare cell pellets for activity measurements, plates were grown to confluency and harvested in phosphate buffered saline (PBS). After centrifugation at 1500 rpm for 5 min, the remaining PBS was aspirated and the cells were resuspended in fresh PBS. The concentration of the resulting suspension was then counted using a TC20 automated cell counter (BioRad). Aliquots were centrifuged at 2000 rpm for 5 min and the resulting cell pellets were stored at -80 °C until further use.
4-MU activity assay protocol for human GH38 α-mannosidases
HEK293T cells stably overexpressing human GH38 α-mannosidases MAN2A1, MAN2A2, MAN2B1, MAN2B2 and MAN2C1 were prepared as previously described[11] and were kindly donated by Dr. C. L.
Kuo. Homogenates were prepared by sonicating cell pellets (Sonics VibraCell, 5x1 s with 30 s interval at 20% amplitude) in 150 mM McIlvain buffer of pH 5.5 (MAN2A1, MAN2A2), pH 4.5 (MAN2B1, MAN2B2) or pH 6.7 (MAN2C1) containing either 2 mM ZnCl2 (MAN2A1, MAN2A2, MAN2B1, MAN2B2) […]

On to `O=S1(=O)N[C@@H]2[C@@H](O)[C@@H](O)[C@H](O)[C@@H](CO)[C@H]2O1` [compound 6, 1,6-trans-manno-cyclosulfamidate], for which, under “CoCl2”, the “activity when the buffer was enriched with CoCl2” value is reported as “no activity”. For the same compound, the half-inhibitory concentration (IC50) (Zn2+) was over 1 mM.
